Among the data in US6348468B1, “Pyridazine compounds and compositions containing the same” (Kowa Co., Ltd., priority 1997, dated 2002) are melting point and IC50 values, retold here.

The structures appear in SMILES notation.

Test system in one data set: not given
Assay: not given
Conditions: not given
`CS(=O)(=O)c1ccc(-c2nn(Cc3ccccc3)c(=S)cc2-c2ccc(F)cc2)cc1` [Example 139, 2-benzyl-5-(4-fluorophenyl)-6-[4-(methylsulfonyl)phenyl]-2H-pyridazine-3-thione] returned a melting point of 181.8 to 182 °C.

For the compound `COc1ccc(Cn2nc(-c3ccc(SC)cc3)c(-c3ccc(F)cc3)cc2=S)cc1` [Example 140, 5-(4-fluorophenyl)-2-(4-methoxybenzyl)-6-(4-(methylthio)phenyl]-2H-pyridazine-3-thione], the melting point is 112.7 to 112.9 °C. For `CSc1ccc(-c2nn(Cc3ccc(Cl)cc3Cl)c(=S)cc2-c2ccc(F)cc2)cc1` [Example 141, 2-(2,4-dichlorobenzyl)-5-(4-fluorophenyl)-6-[4-(methylthio)phenyl]-2H-pyridazine-3-thione], the melting point lay in the range of 154 to 154.2 °C. Consider `COc1ccc(-c2cc(=O)n(Cc3ccccc3)nc2-c2ccc(OC)c(F)c2)cc1` [Example 144, 2-benzyl-6-(3-fluoro-4-methoxyphenyl)-5-(4-methoxyphenyl)-2H-pyridazin-3-one], for which the melting point fell in the range of 136.6 to 137.8 °C. On the same count and under the same terms, for `COc1ccc(-c2cc(=O)n(CC=Cc3ccc(Cl)cc3)nc2-c2ccc(OC)c(F)c2)cc1` [Example 145, 2-(4-chlorocinnamyl)-6-(3-fluoro-4-methoxyphenyl)-5-(4-methoxyphenyl)-2H-pyridazin-3-one] the value was 144 to 145.4 °C; for `CCn1nc(-c2ccc(OC)c(F)c2)c(-c2ccc(OC)cc2)cc1=O` [Example 146, 2-ethyl-6-(3-fluoro-4-methoxyphenyl)-5-(4-methoxyphenyl)-2H-pyridazin-3-one], 122.6 to 123.5 °C.

In the case of `COc1ccc(-c2cc(=O)n(CC(C)C)nc2-c2ccc(OC)c(F)c2)cc1` [Example 147, 6-(3-fluoro-4-methoxyphenyl)-2-isobutyl-5-(4-methoxyphenyl)-2H-pyridazin-3-one], the melting point fell in the range of 86.8 to 87.4 °C. Same read-out and setting: the result for `COc1ccc(-c2cc(=O)n(CC3CC3)nc2-c2ccc(OC)c(F)c2)cc1` [Example 148, 2-cyclopropylmethyl-6-(3-fluoro-4-methoxyphenyl)-5-(4-methoxyphenyl)-2H-pyridazin-3-one] reads 132.2 to 132.6 °C. On the same count and under the same terms, the result for `COc1ccc(C2=NNC(=O)CC2c2ccc(OC)c(F)c2)cc1` (centres unmarked) [Example 149, 4,5-dihydro-5-(3-fluoro-4-methoxyphenyl)-6-(4-methoxyphenyl)-2H-pyridazin-3-one] reads 171.2 to 173.4 °C. The compound `COc1ccc(-c2n[nH]c(=O)cc2-c2ccc(OC)c(F)c2)cc1` [Example 150, 5-(3-fluoro-4-methoxyphenyl)-6-(4-methoxyphenyl)-2H-pyridazin-3-one] displayed a melting point of 212.8 to 213.4 °C. As for `COc1ccc(-c2nn(Cc3ccccc3)c(=O)cc2-c2ccc(OC)c(F)c2)cc1` [Example 151, 2-benzyl-5-(3-fluoro-4-methoxyphenyl)-6-(4-methoxyphenyl)-2H-pyridazin-3-one], the melting point lay in the range of 109.6 to 111.6 °C.

In turn, `COc1ccc(-c2nn(CC=Cc3ccc(Cl)cc3)c(=O)cc2-c2ccc(OC)c(F)c2)cc1` [Example 152, 2-(4-chlorocinnamyl)-5-(3-fluoro-4-methoxyphenyl)-6-(4-methoxyphenyl)-2H-pyridazin-3-one] yielded a melting point of 109.2 to 111 °C. Same read-out and setting: the result for `CCn1nc(-c2ccc(OC)cc2)c(-c2ccc(OC)c(F)c2)cc1=O` [Example 153, 2-ethyl-5-(3-fluoro-4-methoxyphenyl)-6-(4-methoxyphenyl)-2H-pyridazin-3-one] reads 161.7 to 162.2 °C; that for `COc1ccc(-c2nn(CC(C)C)c(=O)cc2-c2ccc(OC)c(F)c2)cc1` [Example 154, 5-(3-fluoro-4-methoxyphenyl)-2-isobutyl-6-(4-methoxyphenyl)-2H-pyridazin-3-one], 124.6 to 125 °C; that for `COc1ccc(-c2nn(CC3CC3)c(=O)cc2-c2ccc(OC)c(F)c2)cc1` [Example 155, 2-cyclopropylmethyl-5-(3-fluoro-4-methoxyphenyl)-6-(4-methoxyphenyl)-2H-pyridazin-3-one], 135.2 to 135.7 °C. The same measure, in the same setting: the result for `COc1ccc(C2=NNC(=O)CC2c2ccc(OC)c(F)c2)cc1F` (centres unmarked) [Example 156, 5,6-bis(3-fluoro-4-methoxyphenyl)-4,5-dihydro-2H-pyridazin-3-one] reads 195.7 to 197.7 °C.

In turn, `COc1ccc(-c2cc(=O)[nH]nc2-c2ccc(OC)c(F)c2)cc1F` [Example 157, 5,6-bis(3-fluoro-4-methoxyphenyl)-2H-pyridazin-3-one] had a melting point of 204.8 to 205.7 °C. As for `COc1ccc(-c2cc(=O)n(Cc3ccccc3)nc2-c2ccc(OC)c(F)c2)cc1F` [Example 158, 2-benzyl-5,6-bis(3-fluoro-4-methoxyphenyl)-2H-pyridazin-3-one], the melting point is 114.1 to 115.2 °C. The same measure, in the same setting: the result for `COc1ccc(-c2cc(=O)n(CC=Cc3ccc(Cl)cc3)nc2-c2ccc(OC)c(F)c2)cc1F` [Example 159, 5,6-bis(3-fluoro-4-methoxyphenyl)-2-(4-chlorocinnamyl)-2H-pyridazin-3-one] reads 72.5 to 74.9 °C.

The compound `COc1ccc(-c2cc(=O)n(CC(C)C)nc2-c2ccc(OC)c(F)c2)cc1F` [Example 161, 5,6-bis(3-fluoro-4-methoxyphenyl)-2-isobutyl-2H-pyridazin-3-one] displayed a melting point of 154 to 154.5 °C. On the same count and under the same terms, the result for `COc1ccc(-c2cc(=O)n(CC3CC3)nc2-c2ccc(OC)c(F)c2)cc1F` [Example 162, 5,6-bis(3-fluoro-4-methoxyphenyl)-2-cyclopropylmethyl-2H-pyridazin-3-one] reads 142.3 to 142.7 °C.

For another data set, the system named is Interleukin-1β (IL-1β) Production. As to the kind of experiment: Inhibitory activity against interleukin-1β production (LPS-stimulated HL-60 cells, ELISA). Type of data set: cell-based. The settings on record: Homo sapiens, 72 h, lipopolysaccharide 10 μg/ml, culturing for 3 days. On the procedure:
HL-60 cells were cultured for 4 days until confluence on RPMI 1640 medium with 10% fetal bovine serum (FBS) added thereto. The HL-60 cells were centrifuged. The supernatant was discarded, and the cells were then suspended at 1×10^6 cells/ml on RPMI 1640 medium with 3% FBS, and lipopolysaccharide was added to give a final concentration of 10 μg/ml. The culture was inoculated at 1 ml/well to a 24-well plate. A test sample was added at 1 μl/well, followed by culturing for 3 days. Three days later, the amount of interleukin-1β in each of the cultures was measured by ELISA. Its IC50 value was determined by a comparison in yield with a control to which no test sample was added.
(ELISA stands for enzyme-linked immunosorbent assay.)
Take `COc1ccc(-c2cc(=O)n(CCN(C)C)nc2-c2ccc(OC)cc2)cc1` [Comp. Comp'd 3, reference compound]: the IC50 was > 100000 nM. Still for that read-out and setting: the result for `COc1ccc(-c2cc(=O)[nH]nc2-c2ccc(OC)cc2)cc1` [Comp. Comp'd 4, reference compound] reads 31600 nM; that for `COc1ccc(-c2cc(=O)n(CC=Cc3ccc(Cl)cc3)nc2-c2ccc(OC)cc2)cc1` [Example 12, 5,6-bis(4-methoxyphenyl)-2-(4-chlorocinnamyl)-2H-pyridazin-3-one], 100 nM; that for `COc1ccc(-c2cc(=O)n(Cc3ccccc3)nc2-c2ccc(OC)cc2)cc1` [Example 13, 5,6-bis(4-methoxyphenyl)-2-benzyl-2H-pyridazin-3-one], 260 nM. Same read-out and setting: the result for `COc1ccc(Cn2nc(-c3ccc(OC)cc3)c(-c3ccc(OC)cc3)cc2=O)cc1` [Example 14, 5,6-bis(4-methoxyphenyl)-2-(4-methoxybenzyl)-2H-pyridazin-3-one] reads 94 nM; that for `COc1ccc(-c2cc(=O)n(Cc3cc(OC)c(OC)c(OC)c3)nc2-c2ccc(OC)cc2)cc1` [Example 16, 5,6-bis(4-methoxyphenyl)-2-(3,4,5-trimethoxybenzyl)-2H-pyridazin-3-one], 230 nM; that for `COc1ccc(-c2cc(=O)n(CCCc3ccccc3)nc2-c2ccc(OC)cc2)cc1` [Example 19, 5,6-bis(4-methoxyphenyl)-2-(3-phenylpropyl)-2H-pyridazin-3-one], 79 nM. Still for that read-out and setting: for `COc1ccc(CCCn2nc(-c3ccc(OC)cc3)c(-c3ccc(OC)cc3)cc2=O)cc1` [Example 23, 5,6-bis(4-methoxyphenyl)-2-[3-(4-methoxyphenyl)propyl]-2H-pyridazin-3-one] the value was 360 nM; for `COc1ccc(-c2cc(=O)n(CC=Cc3ccc(C)cc3)nc2-c2ccc(OC)cc2)cc1` [Example 24, 5,6-bis(4-methoxyphenyl)-2-(4-methylcinnamyl)-2H-pyridazin-3-one], 200 nM; for `COc1ccc(-c2cc(=O)n(CCCc3ccc(C)cc3)nc2-c2ccc(OC)cc2)cc1` [Example 25, 5,6-bis(4-methoxyphenyl)-2-[3-(4-methylphenyl)propyl]-2H-pyridazin-3-one], 180 nM.

Compound `COc1ccc(-c2cc(=O)n(Cc3ccc(F)cc3)nc2-c2ccc(OC)cc2)cc1` [Example 26, 5,6-bis(4-methoxyphenyl)-2-(4-fluorobenzyl)-2H-pyridazin-3-one] displayed an IC50 of 150 nM.

Compound `COc1ccc(-c2cc(=O)n(Cc3ccc(F)cc3F)nc2-c2ccc(OC)cc2)cc1` [Example 27, 5,6-bis(4-methoxyphenyl)-2-(2,4-difluorobenzyl)-2H-pyridazin-3-one] came in with an IC50 of 180 nM. Same read-out and setting: the result for `COc1ccc(-c2cc(=O)n(Cc3ccc(OC)c(F)c3)nc2-c2ccc(OC)cc2)cc1` [Example 28, 5,6-bis(4-methoxyphenyl)-2-(3-fluoro-4-methoxybenzyl)-2H-pyridazin-3-one] reads 290 nM; that for `COc1ccc(-c2cc(=O)n(CC=Cc3ccc(F)cc3)nc2-c2ccc(OC)cc2)cc1` [Example 30, 5,6-bis(4-methoxyphenyl)-2-(4-fluorocinnamyl)-2H-pyridazin-3-one], 170 nM; that for `COc1ccc(-c2cc(=O)n(CC=Cc3ccc(F)cc3F)nc2-c2ccc(OC)cc2)cc1` [Example 31, 5,6-bis(4-methoxyphenyl)-2-(2,4-difluorocinnamyl)-2H-pyridazin-3-one], 95 nM.

`COc1ccc(-c2cc(=O)n(Cc3ccc(Cl)c(Cl)c3)nc2-c2ccc(OC)cc2)cc1` [Example 35, 5,6-bis(4-methoxyphenyl)-2-(3,4-dichlorobenzyl)-2H-pyridazin-3-one] displayed an IC50 of 210 nM. The same measure, in the same setting: the result for `COc1ccc(-c2cc(=O)n(CC=Cc3ccc(Cl)cc3Cl)nc2-c2ccc(OC)cc2)cc1` [Example 40, 5,6-bis(4-methoxyphenyl)-2-(2,4-dichlorocinnamyl)-2H-pyridazin-3-one] reads 270 nM.

As a reminder, the melting point is the temperature of the solid-liquid transition. By IC50 is commonly meant the concentration that inhibits the measured activity by half. A lower IC50 goes with inhibition by little substance.
